The text below walks through data of patent US9212196B2, “Hypophosphorous acid derivatives having antihyperalgic activity and biological applications thereof” (UNIVERSITE PARIS DESCARTES, priority 2011, dated 2015).

Structures can show the parent of a compound that is named as a salt.

What all share (type): cell-based
In one experiment the target is mGlu8 (Homo sapiens (Human), UniProt O00222). The experiment can be described thus: Agonist activity on mGlu8 in transfected HEK293 cells, intracellular calcium release (Fluo4-AM). The settings on record: for mGlu8/4 EC50 ratio: ratio of mGlu8 EC50 to mGlu4 EC50; for EC50: transfected cells, calcium release, read-out: mGlu8 EC50 μM (n). An excerpt:
(§1) The EC50's are compared to those of L-AP4 (L-2-amino-4-phosphonobutyric acid) used as a reference.
(§2) Metabotropic glutamate receptors were transiently transfected in HEK293 cells by electroporation as described elsewhere (Brabet I. et al., 1998) and plated in 96-well microplates. The high affinity glutamate transporter EAAC1 was co-transfected with the receptor in order to avoid any influence of glutamate released by the cells in the assay medium. In the experiments carried out by the inventors, Group-III mGluRs were co-transfected with a chimeric G-protein which couples the activation of the receptor to the phospholipase-C (PLC) pathway. Thus receptor activation induces production of inositol phosphate (IP) which in turn induces intracellular Ca^2+ release. Receptor activity was then determined by measurement of the IP production or Ca release as already described (Goudet C. et al., PNAS 2004). For intracellular calcium measurements, cells expressing mGluRs were loaded with Ca2+-sensitive fluorescent dye Fluo-4 AM (Invitrogen, Cergy-Pontoise, France) dissolved in Hanks' balanced salt solution (HBSS, Invitrogen, Cergy-Pontoise, France) containing 2.5 mM Probenicid (Sigma-Aldrich Chemie, Saint-Quentin Fallavier, France) for 1 h at 37° C., then washed and incubated with HBSS containing probenecid. A drug plate was prepared with the various concentrations of agonist to be tested and drug solution was added in each well after 20 s of recording. Fluorescence signals (excitation 485 nm, emission 525 nm) were measured by using the fluorescence microplate reader Flexstation III (Molecular Devices, Saint-Grégoire, France) at sampling intervals of 1.5 s for 60 s. All points are realized in triplicate.
(§3) The dose-response curves were fitted using the GraphPad Prism program and the following equation: y=[(ymax−ymin)/(1+(x/EC50)n)]+ymin where EC50 is the concentration of the compound necessary to obtain the half maximal effect and n is the Hill coefficient.
Background: A change in cytosolic calcium serves as a functional read-out for many receptors and channels.

A further experiment deals with mGlu4 (Homo sapiens (Human), UniProt Q14833). The experiment in a line: Agonist activity on mGlu4 in transfected HEK293 cells, intracellular calcium release (Fluo4-AM). The settings on record: transfected cells, calcium release; read-out: mGlu4 EC50 μM (n).
mGlu4, sequence (Q14833 33-912): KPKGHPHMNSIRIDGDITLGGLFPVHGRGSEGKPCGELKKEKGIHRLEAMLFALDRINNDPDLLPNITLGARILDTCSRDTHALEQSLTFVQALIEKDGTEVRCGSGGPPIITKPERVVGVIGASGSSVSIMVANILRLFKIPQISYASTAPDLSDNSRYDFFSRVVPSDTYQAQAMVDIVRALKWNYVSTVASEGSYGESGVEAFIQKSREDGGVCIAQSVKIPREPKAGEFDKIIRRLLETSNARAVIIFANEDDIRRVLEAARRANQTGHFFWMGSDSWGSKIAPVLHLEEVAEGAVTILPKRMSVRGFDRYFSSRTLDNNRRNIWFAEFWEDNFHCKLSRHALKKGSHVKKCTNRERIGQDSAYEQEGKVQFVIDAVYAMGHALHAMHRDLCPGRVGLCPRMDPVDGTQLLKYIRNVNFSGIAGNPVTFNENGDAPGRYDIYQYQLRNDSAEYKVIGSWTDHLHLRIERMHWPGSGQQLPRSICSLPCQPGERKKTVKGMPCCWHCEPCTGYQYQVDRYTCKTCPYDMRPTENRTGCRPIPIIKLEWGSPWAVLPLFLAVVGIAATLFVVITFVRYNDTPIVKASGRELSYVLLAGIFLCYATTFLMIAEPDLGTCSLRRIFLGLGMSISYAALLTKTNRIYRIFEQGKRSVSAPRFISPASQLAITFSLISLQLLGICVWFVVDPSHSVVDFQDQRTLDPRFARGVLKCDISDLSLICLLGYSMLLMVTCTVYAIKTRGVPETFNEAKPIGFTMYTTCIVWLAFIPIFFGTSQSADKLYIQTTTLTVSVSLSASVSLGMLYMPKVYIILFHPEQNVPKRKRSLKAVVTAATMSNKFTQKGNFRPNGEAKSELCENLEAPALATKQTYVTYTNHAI
Description: as §1, §2, §3

For experiment [1], the target named is mGlu7 (Homo sapiens (Human), UniProt Q14831). The experiment in a line: Agonist activity on mGlu7 in transfected HEK293 cells, intracellular calcium release (Fluo4-AM). Particulars: transfected cells, calcium release; read-out: mGlu7 EC50 μM (n).
mGlu7 (Homo sapiens (Human), UniProt Q14831), sequence (Q14831 35-915): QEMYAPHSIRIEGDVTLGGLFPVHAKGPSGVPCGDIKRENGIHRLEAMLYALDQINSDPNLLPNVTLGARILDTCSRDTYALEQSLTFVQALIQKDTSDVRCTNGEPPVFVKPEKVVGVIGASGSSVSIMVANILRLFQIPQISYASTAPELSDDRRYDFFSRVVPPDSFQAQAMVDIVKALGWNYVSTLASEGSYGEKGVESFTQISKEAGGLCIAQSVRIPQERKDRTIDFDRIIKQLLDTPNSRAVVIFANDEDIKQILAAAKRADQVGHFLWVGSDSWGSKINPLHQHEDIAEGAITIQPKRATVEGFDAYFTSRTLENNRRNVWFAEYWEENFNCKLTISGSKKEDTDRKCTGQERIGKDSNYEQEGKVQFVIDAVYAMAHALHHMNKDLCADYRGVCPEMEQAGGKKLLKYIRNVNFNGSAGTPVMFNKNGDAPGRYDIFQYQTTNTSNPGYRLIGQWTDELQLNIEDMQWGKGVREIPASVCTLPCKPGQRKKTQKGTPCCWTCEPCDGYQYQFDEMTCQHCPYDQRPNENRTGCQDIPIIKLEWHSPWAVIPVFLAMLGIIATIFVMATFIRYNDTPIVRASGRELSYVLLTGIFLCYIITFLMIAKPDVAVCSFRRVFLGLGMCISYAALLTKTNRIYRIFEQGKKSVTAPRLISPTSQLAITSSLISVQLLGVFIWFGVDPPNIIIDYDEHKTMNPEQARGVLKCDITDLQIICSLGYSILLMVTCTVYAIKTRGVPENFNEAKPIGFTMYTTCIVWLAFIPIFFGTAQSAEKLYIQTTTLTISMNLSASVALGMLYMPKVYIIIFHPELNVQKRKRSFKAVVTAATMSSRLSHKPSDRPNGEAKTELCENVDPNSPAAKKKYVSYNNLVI
Description: as §1, §2, §3

Experiment [2] deals with mGlu7. The description is as above. Particulars: ratio of mGlu7 EC50 to mGlu4 EC50.
Description: as §1, §2, §3

mGlu8, sequence (O00222 34-908): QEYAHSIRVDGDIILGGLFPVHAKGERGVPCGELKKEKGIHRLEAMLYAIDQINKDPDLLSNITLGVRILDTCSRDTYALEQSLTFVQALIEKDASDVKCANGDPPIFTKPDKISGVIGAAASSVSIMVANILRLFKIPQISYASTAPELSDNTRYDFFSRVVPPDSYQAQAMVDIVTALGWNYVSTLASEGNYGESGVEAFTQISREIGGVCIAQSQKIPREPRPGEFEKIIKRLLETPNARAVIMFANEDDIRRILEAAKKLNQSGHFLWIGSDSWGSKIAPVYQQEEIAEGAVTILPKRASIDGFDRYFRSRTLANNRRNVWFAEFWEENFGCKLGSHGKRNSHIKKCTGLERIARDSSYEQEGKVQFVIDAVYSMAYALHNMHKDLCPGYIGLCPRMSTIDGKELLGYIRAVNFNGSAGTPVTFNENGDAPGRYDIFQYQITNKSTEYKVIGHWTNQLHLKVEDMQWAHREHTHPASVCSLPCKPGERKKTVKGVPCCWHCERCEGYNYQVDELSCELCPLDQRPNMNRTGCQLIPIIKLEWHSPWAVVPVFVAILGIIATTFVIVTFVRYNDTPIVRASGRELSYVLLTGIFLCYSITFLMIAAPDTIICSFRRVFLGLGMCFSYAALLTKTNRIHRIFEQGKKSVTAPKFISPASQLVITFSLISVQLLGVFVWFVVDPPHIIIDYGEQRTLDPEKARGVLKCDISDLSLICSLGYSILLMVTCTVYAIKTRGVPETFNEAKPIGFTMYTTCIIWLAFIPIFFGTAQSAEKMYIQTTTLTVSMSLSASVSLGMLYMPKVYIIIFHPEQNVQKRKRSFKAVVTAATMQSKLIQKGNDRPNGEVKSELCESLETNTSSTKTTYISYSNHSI

Take `N[C@@H](CCP(=O)(O)C(O)c1ccc(OCC(=O)O)c(OC(F)(F)F)c1)C(=O)O` (stereo in doubt) [Derivative 20, 2-amino-4-(((4-(carboxymethoxy)-3-(trifluoromethoxy)phenyl)(hydroxy)methyl)(hydroxy)phosphoryl)butanoic acid]: the “mGlu8/4 EC50 ratio” value on mGlu8 is recorded as 927. The values for the 50% effective concentration (EC50) on mGlu8, at mGlu4 and at mGlu7 [1] were 55.6 ± 12 µM, 0.06 ± 0.02 µM and 1.97 ± 0.34 µM, respectively. Besides, in the experiment with mGlu7 [2], the “mGlu7/4 EC50 ratio” value was found to be 33.
With `N[C@@H](CCP(=O)(O)C(O)c1cccc(OCC(=O)O)c1)C(=O)O` (single isomer, unassigned) [Derivative 17, Hydrochloride], the EC50 (usually the concentration needed to bring the measured effect to its halfway point) stood at 29.3 ± 7.2 µM at mGlu8 and 13 ± 2.9 µM on mGlu4.
Take `N[C@@H](CCP(=O)(O)C(O)c1ccc(OCP(=O)(O)O)cc1)C(=O)O` (stereo partly drawn) [Derivative 14, [((3S)-3-Amino-3-carboxy)propyl][(4-phosphonomethoxyphenyl)hydroxymethyl]phosphinic Acid]: the “mGlu8/4 EC50 ratio” value on mGlu8 was 303. The EC50 was 112 ± 46 µM at mGlu8, 0.37 ± 0.12 µM at mGlu4 and 34 ± 10 µM at mGlu7 [1]. Further, in the experiment with mGlu7 [2], the “mGlu7/4 EC50 ratio” value is 92.
For `N[C@@H](CCP(=O)(O)C(O)c1ccc(CCC(=O)O)cc1)C(=O)O` (stereo partly drawn) [Derivative 12, [((3S)-3-Amino-3-carboxy)propyl][(4-(carboxyethyl)phenyl)hydroxymethyl]phosphinic Acid] the same measures were 50, 48.7 ± 9.6 µM, 0.98 ± 0.18 µM, 37 ± 5 µM and 38.
On the same counts, the results for `N[C@@H](CCP(=O)(O)C(O)c1ccc(OCC(=O)O)c(O)c1)C(=O)O` (stereo in doubt) [Derivative 22, 2-amino-4-(((4-(carboxymethoxy)-3-hydroxyphenyl)(hydroxy)methyl)(hydroxy)phosphoryl)butanoic acid] are 31, 34 ± 19 µM, 1.1 ± 0.4 µM, 15 ± 3.6 µM and 14.
On to `COc1cc(CP(=O)(O)CC[C@H](N)C(=O)O)ccc1OCC(=O)O` (stereo in doubt) [Derivative 31, 2-amino-4-((4-(carboxymethoxy)-3-methoxybenzyl)(hydroxy)phosphoryl)butanoic acid], for which the “mGlu8/4 EC50 ratio” value on mGlu8 is >40. For the same compound, the 50% effective concentration (EC50) was > 300 µM on mGlu8 and 7.41 ± 1.55 µM on mGlu4.
For the compound `N[C@@H](CCP(=O)(O)Cc1ccc(OCC(=O)O)c(OC(F)(F)F)c1)C(=O)O` (stereo in doubt) [Derivative 32, 2-amino-4-((4-(carboxymethoxy)-3-(trifluoromethoxy)benzyl)(hydroxy)phosphoryl)butanoic acid], the “mGlu8/4 EC50 ratio” value at mGlu8 is on record as >82. Further, the EC50 is > 100 µM at mGlu8, 1.22 ± 0.15 µM at mGlu4 and 16.2 ± 3.5 µM at mGlu7 [1]. The “mGlu7/4 EC50 ratio” value with mGlu7 [2] is 13.
As to `N[C@@H](CCP(=O)(O)C(O)c1cccc(OCC(=O)O)c1)C(=O)O` (stereo partly drawn) [Derivative 15, [((3S)-3-Amino-3-carboxy)propyl][(3-(carboxymethoxy)phenyl)hydroxymethyl]phosphinic Acid], at mGlu8, the “mGlu8/4 EC50 ratio” value stood at 9.4.
On to `COc1cc(C(O)P(=O)(O)CC[C@H](N)C(=O)O)cc(I)c1OCC(=O)O` (some centres unmarked) [Derivative 8], for which the “mGlu8/4 EC50 ratio” value on mGlu8 turned out to be 193. The concentration giving a half-maximal response (EC50) on mGlu8 worked out at 28 ± 4 µM; on mGlu4 it was 0.15 ± 0.03 µM; on mGlu7 [1], 6.6 ± 1.5 µM. Also, the “mGlu7/4 EC50 ratio” value in the experiment with mGlu7 [2] worked out at 44.
On the same counts, the results for `COc1cc(C(O)P(=O)(O)CC[C@H](N)C(=O)O)cc(F)c1OCC(=O)O` (some centres unmarked) [Derivative 6] are 129, 10.3 ± 1.3 µM, 0.08 ± 0.02 µM, 3.5 ± 1.3 µM and 44.
Consider `N[C@@H](CCP(=O)(O)C(O)c1cc(Cl)c(OCC(=O)O)c(Cl)c1)C(=O)O` (some centres unmarked) [Derivative 9], for which the “mGlu8/4 EC50 ratio” value at mGlu8 was 484. The EC50 on mGlu8 worked out at 109 ± 15 µM; at mGlu4, 0.38 ± 0.09 µM; at mGlu7 [1], 22.9 ± 7.8 µM. For the same compound, in the experiment on mGlu7 [2], the “mGlu7/4 EC50 ratio” value came out at 60.
On to `N[C@@H](CCP(=O)(O)C(O)c1cccc(OCC(=O)O)c1)C(=O)O` (stereo partly drawn) [Derivative 17, [((3S)-3-Ammonium-3-carboxy)propyl][(3-(carboxymethoxy)phenyl)hydroxymethyl]phosphinic Acid Hydrochloride], for which, on mGlu8 (Hydrochloride), the “mGlu8/4 EC50 ratio” value was determined as 2.3.
As for `N[C@@H](CCP(=O)(O)C(O)c1ccc(OCC(=O)O)c(C(=O)O)c1)C(=O)O` (stereo in doubt) [Derivative 23, 5-(((3-amino-3-carboxypropyl)(hydroxy)phosphoryl)(hydroxy)methyl)-2-(carboxymethoxy)benzoic acid], the “mGlu8/4 EC50 ratio” value at mGlu8 is listed as 1.9. Also, the EC50 is 7.4 ± 1.2 µM on mGlu8, 4 ± 0.6 µM at mGlu4 and 65 ± 13 µM at mGlu7 [1]. In addition, the “mGlu7/4 EC50 ratio” value in the experiment on mGlu7 [2] was 16.
On the same counts, the results for `N[C@@H](CCP(=O)(O)C(O)c1ccc(SCC(=O)O)c([N+](=O)[O-])c1)C(=O)O` (stereo in doubt) [Derivative 25, 2-amino-4-(((4-(carboxymethylthio)-3-nitrophenyl)(hydroxy)methyl)(hydroxy)phosphoryl)butanoic acid] are 10.4, 11.5 µM, 1.1 ± 0.36 µM, 15.2 ± 3.9 µM and 1.4.
On to `N[C@@H](CCP(=O)(O)C(O)c1ccc(SCC(=O)O)cc1)C(=O)O` (stereo in doubt) [Derivative 26, 2-amino-4-(((4-(carboxymethylthio)phenyl)(hydroxy)methyl)(hydroxy)phosphoryl)butanoic acid], for which the “mGlu8/4 EC50 ratio” value on mGlu8 was 5.9. Further, the concentration giving a half-maximal response (EC50) at mGlu8 was found to be 1.23 ± 0.48 µM; at mGlu4, 0.21 ± 0.04 µM; at mGlu7 [1], 13 ± 1.1 µM. Further, the “mGlu7/4 EC50 ratio” value with mGlu7 [2] is 62.
For `N[C@@H](CCP(=O)(O)C(O)c1ccc(OCC(=O)O)c(C(F)(F)F)c1)C(=O)O` (stereo in doubt) [Derivative 21, 2-amino-4-(((4-(carboxymethoxy)-3-(trifluoromethyl)phenyl)(hydroxy)methyl)(hydroxy)phosphoryl)butanoic acid] the same measures were 8, 6.86 ± 1.83 µM, 0.9 ± 0.06 µM, 35.5 ± 4 µM and 39.
For `COc1cc(CP(=O)(O)CC[C@H](N)C(=O)O)cc(F)c1OCC(=O)O` (stereo in doubt) [Derivative 34, 2-amino-4-((4-(carboxymethoxy)-3-fluoro-5-methoxybenzyl)(hydroxy)phosphoryl)butanoic acid] the same measures were 3, 9.17 ± 2.37 µM, 3.09 ± 0.62 µM, 232 ± 85 µM and 75.
In the case of `N[C@@H](CCP(=O)(O)C(O)c1cccc(OCC(=O)O)c1)C(=O)O` (stereo partly drawn) [Derivative 16, [((3S)-3-Ammonium-3-carboxy)propyl][(3-(carboxymethoxy)phenyl)hydroxymethyl]phosphinic Acid Hydrochloride], the “mGlu8/4 EC50 ratio” value on mGlu8 (Hydrochloride) is 7.4.
Regarding `N[C@@H](CCP(=O)(O)C(O)c1cccc(OCC(=O)O)c1)C(=O)O` (single isomer, unassigned) [Derivative 16, Hydrochloride], the half-maximal effective concentration (EC50) on mGlu8 turned out to be 36 ± 18 µM; on mGlu4, 4.9 ± 1 µM.
With `N[C@@H](CCP(=O)(O)C(O)c1ccc(OCC(=O)O)c(OCC(=O)O)c1)C(=O)O` (stereo partly drawn) [Derivative 18, [((3S)-3-Amino-3-carboxy)propyl][(3,4-di(carboxymethoxy)phenyl)hydroxymethyl]phosphinic Acid], the “mGlu8/4 EC50 ratio” value on mGlu8 was determined as 6. Moreover, the EC50 was determined as 14.1 ± 7.3 µM at mGlu8 and 2.5 ± 1.1 µM on mGlu4.
For the compound `N[C@@H](CCP(=O)(O)C(O)c1cccc(OCC(=O)O)c1)C(=O)O` (mixture of isomers) [Derivative 15, [((3S)-3-Amino-3-carboxy)propyl][(3-(carboxymethoxy)phenyl)hydroxymethyl]phosphinic Acid], the half-maximal effective concentration (EC50) on mGlu8 was 71 ± 25 µM; at mGlu4 it was 7.6 ± 2 µM.
